Consider four compounds from patent EP0085985A1, “Pyridazinone derivatives, pharmaceutically acceptable salts thereof and pharmaceutical compositions comprising said compounds” (MITSUBISHI KASEI CORPORATION, priority 1982, dated 1983).

What is called LD50 is the dose at which mortality reaches 50%. Low readings indicate greater toxicity, high ones lower toxicity.

The test system of series [1] is papillary muscle preparation of the dog. Nature of the series: Isolated and cross-circulated papillary muscle preparation of the dog (contractility). Conditions: Canis lupus familiaris, read-out: Developed tension (% Increase); for activation at 0.03 mg: Dose 30 µg i.a.; for activation at 0.1 mg: Dose 100 µg i.a. Here is the method:
(§1) By way of examples, pharmacological test procedures are described below. • (1) An isolated and cross-circulated papillary muscle preparation of the dog An isolated and cross-circulated papillary muscle preparation of the dog was prepared according to the method of Endo and Hashimoto [see American J. Physiol., 218, 1459-1463, (1970) U. S. A.]. A test compound dissolved in a solvent was applied by proximal intraarterial injection and its effect on contractility of the papillary muscle was determined. The results are shown in Table 1. • (2) Isolated left atrium of the guinea pig Male guinea pigs weighing 200 - 300 g were stunned by a blow on the head and the hearts were quickly excised and placed in a Petri dish containing oxygenated Krebs-Hensleit solution. The left atrium was excised. A fine cotton suture was attached to the left atrial appendage. The tissue was mounted in a 30 ml organ bath filled with Krebs-Hensleit solution at 37°C and oxygenated with 95% 02 - 5% C02 mixture. The cotton thread was then attached to a force- displacement transducer connected to a polygraph. A silver wire electrode connected to a stimulator was placed at the bottom of the preparaticn. Resting tension applied was 0.5 g. The preparation was driven electrically by a stimulator at a rate of 120/min. with suprathreshold rectangular pulses of 1 msec duration. The preparation was left to equilibrate for 1 hour. The test compounds dissolved in vehicle were added to the organ bath and the response was recorded. The results are shown in Table 1. • (3) Intact anesthetized dog preparation Mongrel dogs of either sex weighing 8 - 13 kg were anesthetized with sodium pentobarbital (30 mg/kg i.v.). A tracheal cannula was inserted and artificial respiration was carried out by means of a Harvard respiration. The left femoral vein was cannulated for intravenous bolus injection of the test compounds. The chest was opened at the left 4th intercostal space, the heart was exposed, and a _Walton-Brodie type strain gauge was sutured to the wall of the right ventricle to measure myocadial contractile force. A polyethylene cannula connected to a transducer was introduced into the left ventricle through the ventricular wall and left ventricular pressure was measured. Peak positive rate of rise of left ventricular pressure (dP/dt max) was obtained by an electric differentiator. The test compounds were dissolved in appropriate vehicle and intravenously administered.

The subject of series [2] is left atrium of the guinea pig. Briefly: Isolated, electrically driven left atrium of the guinea pig (contractility). Here is the method: as §1
A short description of series [3]: Acute toxicity, LD50 by the Litchfield-Wilcoxon method. As to conditions: in vivo. The procedure: The values for LD50 were determined by the Litchfield-Wilcoxon method [J. T. Litchfield and F. Wilcoxon, J. Pharmacol. exp. Therap., 96, 99 (1949)].
For series [4], the system named is anesthetized dog. Briefly: Intact anesthetized dog preparation (in situ), cardiac contractility. In kind it is in vivo. Conditions: intravenous. The procedure:
as §1

On to `NC(=S)Nc1ccc(C2=NNC(=O)CC2)cc1` [Example 1, 4,5-dihydro-6-(4-thioureidophenyl)-3-(2H)-pyridazinone], for which, in series [1], the activation at 0.03 mg stood at 9.5% and the activation at 0.1 mg was determined as 21.2%. For the same compound, in series [2] (Concentration 3 x 10^-5 g/ml), the “Developed tension (% Increase)” value is 44.9 % Increase. Further, in series [2] (Concentration 10^-5 g/ml), the “Developed tension (% Increase)” value is 24.6 % Increase.
On to `CNC(=S)Nc1ccc(C2=NNC(=O)CC2)cc1` [Example 2, 4,5-dihydro-6-(4-N-methylthioureidophenyl)-3-(2H)-pyridazinone], for which the values for the 50% lethal dose (LD50) in series [3] (iv) and in series [3] (po) were over 100 mg/kg and over 2200 mg/kg, respectively. The activation at 0.01 mg in series [1] (Dose 10 µg i.a.) was 8.8%. Also, the activation at 0.03 mg in series [1] stood at 47.4%. In addition, the “Developed tension (% Increase)” value worked out at 32.1 % Increase in series [2] (Concentration 3 x 10^-6 g/ml) and 28.9 % Increase in series [2] (Concentration 10^-6 g/ml). Moreover, the “Contractile force of right ventricle (% Increase)” value (“Contractile force … (% Increase)” below) in series [4] (Dose 0.03 mg/kg) amounted to 65.1 % Increase; in series [4] (Dose 0.1 mg/kg), 74.8 % Increase. The “dP/dt max. (% Increase)” value stood at 28.4 % Increase in series [4] (Dose 0.03 mg/kg) and 95.4 % Increase in series [4] (Dose 0.1 mg/kg).
As for `CNC(=S)Nc1ccc(-c2ccc(=O)[nH]n2)cc1` [Example 3, 6-(4-N-methylthioureidophenyl)-3-(2H)-pyridazinone], the activation at 0.1 mg in series [1] is 8.1%. Further, the activation at 0.3 mg in series [1] (Dose 300 µg i.a.) was 15.9%. The “Developed tension (% Increase)” value in series [2] (Concentration 3 x 10^-5 g/ml) came out at 34.0 % Increase; in series [2] (Concentration 10^-5 g/ml), 28.3 % Increase.
As for `CCNC(=S)Nc1ccc(C2=NNC(=O)CC2)cc1` [Example 4, 4,5-dihydro-6-(4-N-ethylthioureidophenyl)-3-(2H)-pyridazinone], in series [1], the activation at 0.03 mg was 8.4% and the activation at 0.1 mg came to 11.5%. Moreover, the “Developed tension (% Increase)” value in series [2] (Concentration 3 x 10^-5 g/ml) was 102 % Increase. In series [2] (Concentration 10^-5 g/ml), the “Developed tension (% Increase)” value stood at 85.6 % Increase. In series [4] (Dose 0.3 mg/kg), the “Contractile force … (% Increase)” value was determined as 75.8 % Increase and the “dP/dt max. (% Increase)” value is listed as 49.9 % Increase. Further, in series [4] (Dose 1 mg/kg), the “Contractile force … (% Increase)” value came to 116.2 % Increase and the “dP/dt max. (% Increase)” value worked out at 79.5 % Increase.
